# Data taken from ChEMBL document CHEMBL4184315, “Discovery of Inhibitor of Wnt Production 2 (IWP-2) and Related Compounds As Selective ATP-Competitive Inhibitors of Casein Kinase 1 (CK1) δ/ε” (J Med Chem, 2018).
# pEC50, pIC50: −log10 of the molar value. The source made the active and inactive calls. No cut-off for these calls is given here.
# Key:
# [1] = molecular target: T1, Protein-serine O-palmitoleoyltransferase porcupine (Homo sapiens, UniProt Q9H237); experiment: Inhibition of porcupine in HEK293T cells transfected with Wnt3A-expressing vector assessed as suppression of Wnt/beta-catenin signaling after 22 hrs by Super-top flash reporter gene assay; assay type: cell-based
# T1 sequence (Q9H237 whole entry): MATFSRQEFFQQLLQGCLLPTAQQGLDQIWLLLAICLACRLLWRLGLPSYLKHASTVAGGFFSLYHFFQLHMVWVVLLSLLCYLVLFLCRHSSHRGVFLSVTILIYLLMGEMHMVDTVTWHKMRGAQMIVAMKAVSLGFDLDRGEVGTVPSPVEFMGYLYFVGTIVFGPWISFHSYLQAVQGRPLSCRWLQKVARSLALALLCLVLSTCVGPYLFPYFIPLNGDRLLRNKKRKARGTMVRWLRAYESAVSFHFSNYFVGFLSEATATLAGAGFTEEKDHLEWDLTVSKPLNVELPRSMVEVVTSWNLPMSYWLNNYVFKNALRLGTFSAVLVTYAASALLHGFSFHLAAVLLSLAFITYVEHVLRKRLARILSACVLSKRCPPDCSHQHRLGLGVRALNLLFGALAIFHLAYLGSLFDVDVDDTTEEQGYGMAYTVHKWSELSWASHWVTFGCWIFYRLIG
# [2] = molecular target: T2, Protein-serine O-palmitoleoyltransferase porcupine (Homo sapiens) (UniProt Q9H237); experiment: Inhibition of porcupine in HEK293T cells transfected with Wnt3A-expressing vector assessed as suppression of Wnt/beta-catenin signaling at 5 uM after 22 hrs by Super-top flash reporter gene assay relative to control; assay type: cell-based
# T2 sequence (whole entry): T1 sequence (Q9H237 whole entry)
# Homo sapiens = organism: Homo sapiens; experiment: Inhibition of Wnt/beta-catenin signaling in HEK293T cells after 22 hrs in presence of Wnt3A-conditioned medium by Super-top flash reporter gene assay; assay type: cell-based
# HEK-293T [3] = experiment: Upregulation of renilla luciferase expression in HEK293T cells transfected with Wnt3A-expressing vector up to 5 uM after 22 hrs by luminescence assay relative to control; assay type: cell-based; conditions: human
# HEK-293T [4] = experiment: Upregulation of renilla luciferase expression in HEK293T cells up to 5 uM after 22 hrs in presence of Wnt3A-conditioned medium by luminescence assay relative to control; assay type: cell-based; conditions: human
# [5] = molecular target: T3, Casein kinase I isoform delta (Rattus norvegicus, UniProt Q06486); experiment: Inhibition of rat recombinant CK1delta kinase domain using alpha-casein as substrate after 30 mins in presence of [gamma-32P]-ATP by Cherenkov counting method
# T3 sequence (Q06486 whole entry, the tested form may be a part, canonical isoform): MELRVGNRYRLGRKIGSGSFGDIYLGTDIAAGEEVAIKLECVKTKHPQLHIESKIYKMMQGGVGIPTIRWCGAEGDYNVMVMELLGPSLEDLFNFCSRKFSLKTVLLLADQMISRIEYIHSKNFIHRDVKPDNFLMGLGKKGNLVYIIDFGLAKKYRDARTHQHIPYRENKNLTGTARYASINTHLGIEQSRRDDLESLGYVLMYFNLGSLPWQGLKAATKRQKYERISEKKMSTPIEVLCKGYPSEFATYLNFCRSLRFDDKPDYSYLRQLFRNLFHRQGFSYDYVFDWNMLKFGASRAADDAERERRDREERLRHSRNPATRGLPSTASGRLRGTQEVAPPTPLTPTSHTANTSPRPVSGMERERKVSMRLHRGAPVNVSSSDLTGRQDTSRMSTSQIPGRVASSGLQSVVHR
# [6] = molecular target: T3, Casein kinase I isoform delta; experiment: Inhibition of full-length rat GST-tagged CK1delta using alpha-casein as substrate after 30 mins in presence of [gamma-32P]-ATP by Cherenkov counting method
# [7] = molecular target: Casein kinase I isoform delta (Rattus norvegicus, UniProt Q06486, M82F); experiment: Inhibition of rat GST-tagged CK1delta M82F mutant at 10 uM using alpha-casein as substrate after 30 mins in presence of [gamma-32P]-ATP by Cherenkov counting method
# Sequence of Casein kinase I isoform delta (Rattus norvegicus, UniProt Q06486, M82F) (Q06486 whole entry M82F, canonical isoform): as the sequence (Q06486 whole entry, the tested form may be a part, canonical isoform) above, with M82F counted along it
# [8] = molecular target: Casein kinase I isoform epsilon (Homo sapiens, UniProt P49674); experiment: Inhibition of human recombinant CK1epsilon using alpha-casein as substrate after 30 mins in presence of [gamma-32P]-ATP by Cherenkov counting method
# Sequence of Casein kinase I isoform epsilon (P49674 whole entry, canonical isoform): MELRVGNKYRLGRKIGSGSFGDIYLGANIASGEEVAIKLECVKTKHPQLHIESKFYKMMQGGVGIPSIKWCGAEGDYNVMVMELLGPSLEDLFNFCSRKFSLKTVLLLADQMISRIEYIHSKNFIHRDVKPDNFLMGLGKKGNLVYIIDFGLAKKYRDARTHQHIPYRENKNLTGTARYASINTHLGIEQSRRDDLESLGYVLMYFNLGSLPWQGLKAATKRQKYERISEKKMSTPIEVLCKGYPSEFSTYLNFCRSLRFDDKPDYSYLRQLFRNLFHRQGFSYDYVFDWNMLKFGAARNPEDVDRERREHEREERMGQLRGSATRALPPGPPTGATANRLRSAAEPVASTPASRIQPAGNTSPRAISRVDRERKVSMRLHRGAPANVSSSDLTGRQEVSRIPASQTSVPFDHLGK
# [9] = molecular target: T4, Casein kinase I isoform alpha (Bos taurus) (UniProt P67827); experiment: Inhibition of bovine GST-tagged CK1alpha at 1 uM using alpha-casein as substrate after 30 mins in presence of [gamma-32P]-ATP by Cherenkov counting method
# T4 sequence (whole entry): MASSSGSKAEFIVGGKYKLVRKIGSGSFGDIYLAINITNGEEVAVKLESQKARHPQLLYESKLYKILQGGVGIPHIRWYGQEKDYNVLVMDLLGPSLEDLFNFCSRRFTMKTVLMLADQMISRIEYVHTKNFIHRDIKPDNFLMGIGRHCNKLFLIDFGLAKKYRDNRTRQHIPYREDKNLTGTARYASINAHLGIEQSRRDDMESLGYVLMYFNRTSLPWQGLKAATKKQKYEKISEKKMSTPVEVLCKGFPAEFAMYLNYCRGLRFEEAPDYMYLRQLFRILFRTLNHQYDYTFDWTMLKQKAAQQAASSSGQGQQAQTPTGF
# [10] = molecular target: Casein kinase I isoform gamma-3 (Homo sapiens) (UniProt Q9Y6M4); experiment: Inhibition of human GST-tagged CK1gamma3 at 1 uM using alpha-casein as substrate after 30 mins in presence of [gamma-32P]-ATP by Cherenkov counting method
# Sequence of Casein kinase I isoform gamma-3 (Homo sapiens) (Q9Y6M4 whole entry, looked up, canonical isoform): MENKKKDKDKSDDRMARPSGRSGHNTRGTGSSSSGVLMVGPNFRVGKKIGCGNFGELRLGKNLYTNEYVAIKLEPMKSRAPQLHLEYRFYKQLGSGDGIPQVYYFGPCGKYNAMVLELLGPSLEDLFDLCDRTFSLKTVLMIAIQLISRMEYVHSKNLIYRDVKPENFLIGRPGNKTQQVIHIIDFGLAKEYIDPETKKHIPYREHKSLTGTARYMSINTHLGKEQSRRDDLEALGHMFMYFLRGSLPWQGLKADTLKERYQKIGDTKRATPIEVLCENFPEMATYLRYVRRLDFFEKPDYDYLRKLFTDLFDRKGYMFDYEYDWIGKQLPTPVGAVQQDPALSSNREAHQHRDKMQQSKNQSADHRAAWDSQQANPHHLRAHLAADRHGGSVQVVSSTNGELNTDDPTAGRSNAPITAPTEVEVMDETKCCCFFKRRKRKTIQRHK
# [11] = molecular target: T5, Casein kinase I isoform delta (Homo sapiens, UniProt P48730); conditions: 125 uM
# T5 sequence (P48730 whole entry, looked up, canonical isoform): as the sequence (Q06486 whole entry, the tested form may be a part, canonical isoform) above, with V381I counted along it
# [12] = molecular target: T6, Casein kinase I delta/epsilon (Homo sapiens) (UniProt P48730+P49674); experiment: Inhibition of CK1delta/epsilon in HEK293T cells assessed as suppression of Wnt/beta-catenin signaling up to 0.1 uM after 22 hrs in presence of Wnt3A-conditioned medium by Super-top flash reporter gene assay; assay type: cell-based
# T6 sequence (P48730 whole entry, looked up): as the sequence (Q06486 whole entry, the tested form may be a part, canonical isoform) above, with V381I counted along it
# T6 sequence (P49674 whole entry, looked up): as the sequence (P49674 whole entry, canonical isoform) above
# [13] = molecular target: T6, Casein kinase I delta/epsilon (Homo sapiens); experiment: Inhibition of CK1delta/epsilon in HEK293T cells transfected with Wnt3A-expressing vector assessed as suppression of Wnt/beta-catenin signaling up to 0.1 uM after 22 hrs by Super-top flash reporter gene assay; assay type: cell-based
# [14] = molecular target: Casein kinase I isoform delta (Rattus norvegicus) (UniProt Q06486); experiment: Inhibition of full-length rat GST-tagged CK1delta at 10 uM using alpha-casein as substrate after 30 mins in presence of [gamma-32P]-ATP by Cherenkov counting method
# Sequence of Casein kinase I isoform delta (Rattus norvegicus) (Q06486 whole entry, looked up, the tested form may be a part, canonical isoform): as the sequence (Q06486 whole entry, the tested form may be a part, canonical isoform) above
# [15] = molecular target: Casein kinase I isoform delta (Rattus norvegicus) (UniProt Q06486); experiment: Inhibition of rat recombinant CK1delta kinase domain at 10 uM using alpha-casein as substrate after 30 mins in presence of [gamma-32P]-ATP by Cherenkov counting method
# [16] = molecular target: T4, Casein kinase I isoform alpha (Bos taurus); experiment: Inhibition of bovine GST-tagged CK1alpha at 10 uM using alpha-casein as substrate after 30 mins in presence of [gamma-32P]-ATP by Cherenkov counting method
# [17] = molecular target: Casein kinase I isoform gamma-3 (Homo sapiens) (UniProt Q9Y6M4); experiment: Inhibition of human GST-tagged CK1gamma3 at 10 uM using alpha-casein as substrate after 30 mins in presence of [gamma-32P]-ATP by Cherenkov counting method
# [18] = Selectivity ratio of IC50 for human CK1epsilon to IC50 for full-length rat GST-tagged CK1delta
# [19] = Selectivity ratio of IC50 for human CK1epsilon to IC50 for rat recombinant CK1delta kinase domain
# [20] = molecular target: Casein kinase I isoform delta (Rattus norvegicus) (UniProt Q06486); experiment: Ratio of IC50 for full-length rat GST-tagged CK1delta to IC50 for rat recombinant CK1delta kinase domain
# [21] = Antiproliferative activity against human A818-6 cells after 48 hrs by MTT assay; assay type: functional, cell-based
# MIA PaCa-2 = experiment: Antiproliferative activity against human MIAPaCa2 cells after 48 hrs by MTT assay; assay type: functional, cell-based; conditions: MIA PaCa-2, 48 h
# PANC-1 = experiment: Antiproliferative activity against human PANC1 cells after 48 hrs by MTT assay; assay type: functional, cell-based; conditions: PANC-1, 48 h
# [22] = Antiproliferative activity against human Panc89 cells after 48 hrs by MTT assay; assay type: functional, cell-based
# HT-29 = experiment: Antiproliferative activity against human HT-29 cells after 48 hrs by MTT assay; assay type: functional, cell-based; conditions: HT-29, 48 h
# HEK293 = experiment: Antiproliferative activity against human HEK293 cells after 48 hrs by MTT assay; assay type: functional, cell-based; conditions: HEK293, 48 h
# SW-620 = experiment: Antiproliferative activity against human SW620 cells after 48 hrs by MTT assay; assay type: functional, cell-based; conditions: SW-620, 48 h
# CAPAN-1 = experiment: Antiproliferative activity against human Capan1 cells after 48 hrs by MTT assay; assay type: functional, cell-based; conditions: CAPAN-1, 48 h
# [23] = molecular target: Casein kinase I isoform delta (Rattus norvegicus) (UniProt Q06486); experiment: Inhibition of full-length rat GST-tagged CK1delta assessed as residual activity at 10 uM using alpha-casein as substrate after 30 mins in presence of [gamma-32P]-ATP by Cherenkov counting method
# [24] = molecular target: Casein kinase I isoform delta (Rattus norvegicus) (UniProt Q06486); experiment: Inhibition of rat recombinant CK1delta kinase domain assessed as residual activity at 10 uM using alpha-casein as substrate after 30 mins in presence of [gamma-32P]-ATP by Cherenkov counting method
# Rattus norvegicus = organism: Rattus norvegicus; experiment: Selectivity ratio of IC50 for full-length rat GST-tagged CK1delta to IC50 for rat GST-tagged CK1delta M82F mutant
# [25] = molecular target: Casein kinase I isoform delta (Rattus norvegicus) (UniProt Q06486); experiment: Competitive inhibition of full-length rat GST-tagged CK1delta at IC50 using alpha-casein as substrate after 30 mins in presence of 10 to 500 uM ATP and [gamma-32P]-ATP by Cherenkov counting method
# [26] = molecular target: T5, Casein kinase I isoform delta; experiment: Inhibition of CK1delta isolated from human PANC1 cells at 5 uM using GST-tagged p53 (1 to 64 residues) as substrate after 30 mins in presence of [gamma-32P]-ATP by Cherenkov counting method
smiles,measurement,setting,value
Cc1cc(-c2ccc(CC(=O)Nc3ccc(-c4cccnc4)cc3)cc2)ccn1,pIC50,[1],> 9.00
same,Imax,[2],1.1%
same,inhibition,Homo sapiens,inactive
same,fold change (FC),HEK-293T [3],<= 1.3
same,fold change (FC),HEK-293T [4],<= 1.5
COc1cccc(Cn2c(SCC(=O)Nc3nc4ccc(C(F)(F)F)cc4s3)nc3c(c2=O)SCC3)c1OC,pIC50,[5],6.64
same,pIC50,[6],6.12
same,pIC50,[7],6.68
same,pIC50,[8],5.91
same,inhibition,[9],Active
same,inhibition,[10],Active
Nc1nccc(-c2c(-c3ccc(F)cc3)ncn2C2CCCCC2)n1,inhibition,[11],40%
Fc1cccc(-n2cnc3c(NCc4nc5c(F)c(F)ccc5[nH]4)nc(N4CCOCC4)nc32)c1,inhibition,[12],Dose-dependent effect
same,inhibition,[13],Dose-dependent effect
O=C(CSc1nc2c(c(=O)n1Cc1cccc(C(F)(F)F)c1)SCC2)Nc1nc2ccc(C(F)(F)F)cc2s1,pIC50,[6],5.99
same,inhibition,[9],Active
same,inhibition,[10],Active
Cc1ccc2nc(NC(=O)CSc3nc4c(c(=O)n3-c3ccc(F)cc3)SCC4)sc2c1,inhibition,[14],Active
same,inhibition,[15],Active
same,inhibition,[16],inactive
same,inhibition,[17],Active
same,pIC50,[5],6.26
same,pIC50,[6],5.72
same,pIC50,[7],6.82
same,pIC50,[8],< 5.00
same,Ratio IC50,[18],4 to 7
same,Ratio IC50,[19],< 17
same,Ratio IC50,[20],4
same,pEC50,[21],< 5.00
same,pEC50,MIA PaCa-2,5.27
same,pEC50,PANC-1,5.31
same,pEC50,[22],5.29
same,pEC50,HT-29,< 5.00
same,pEC50,HEK293,5.46
same,pEC50,SW-620,5.06
same,pEC50,CAPAN-1,< 5.00
O=C(CSc1nc2c(c(=O)n1Cc1ccccc1)SCC2)Nc1nc2ccc(C(F)(F)F)cc2s1,pIC50,[5],6.28
same,pIC50,[6],5.97
same,pIC50,[7],6.57
same,pIC50,[8],5.85
same,inhibition,[9],Active
same,inhibition,[10],Active
COc1ccccc1-n1c(SCC(=O)Nc2nc3ccc(C)cc3s2)nc2c(c1=O)SCC2,Activity,[23],25%
same,Activity,[24],22%
same,pIC50,[5],5.99
same,pIC50,[6],5.97
same,pIC50,[7],6.85
same,pIC50,[8],5.15
same,Ratio IC50,[18],4 to 7
same,Ratio IC50,[19],< 17
same,pEC50,[21],6.03
same,pEC50,MIA PaCa-2,6.64
same,pEC50,PANC-1,6.64
same,pEC50,[22],6.24
same,pEC50,HT-29,6.47
same,pEC50,HEK293,6.55
same,pEC50,SW-620,6.64
same,pEC50,CAPAN-1,6.64
Cc1ccc2nc(NC(=O)CSc3nc4c(c(=O)n3Cc3ccccc3)SCC4)sc2c1,inhibition,[14],Active
same,inhibition,[15],Active
same,inhibition,[16],inactive
same,inhibition,[17],Active
same,pIC50,[5],6.38
same,pIC50,[6],5.78
same,pIC50,[7],7.22
same,pIC50,[8],5.13
same,Ratio IC50,[18],4 to 7
same,Ratio IC50,[19],< 17
same,Ratio IC50,[20],4
same,Ratio IC50,Rattus norvegicus,28
same,inhibition,[25],Active
same,pEC50,[21],< 5.00
same,pEC50,MIA PaCa-2,5.25
same,pEC50,PANC-1,< 5.00
same,pEC50,[22],5.51
same,pEC50,HT-29,< 5.00
same,pEC50,HEK293,< 5.00
same,pEC50,SW-620,5.07
same,pEC50,CAPAN-1,< 5.00
O=C(CSc1nc2c(c(=O)n1Cc1ccc(OC(F)(F)F)cc1)SCC2)Nc1nc2ccc(C(F)(F)F)cc2s1,pIC50,[6],6.15
same,inhibition,[9],Active
same,inhibition,[10],Active
O=C(CSc1nc2c(c(=O)n1Cc1ccc(C(F)(F)F)cc1)SCC2)Nc1nc2ccc(C(F)(F)F)cc2s1,pIC50,[6],6.48
same,inhibition,[9],Active
same,inhibition,[10],Active
COc1cc(OC)c(/C=C2/C(=O)Nc3ccccc32)c(OC)c1,inhibition,[26],40%
O=C(CSc1nc2c(c(=O)n1-c1ccccc1)SCC2)Nc1nc2ccc(C(F)(F)F)cc2s1,pIC50,[5],6.40
same,pIC50,[6],6.18
same,pIC50,[7],6.68
same,pIC50,[8],5.39
same,inhibition,[9],Active
same,inhibition,[10],Active
